Laboratory results from patent publication US7557573B2, “NMR-based methods for detecting ligands, where the ligand or target are hyperpolarized and the NMR-spectrum is compared with a reference spectrum of the ligand or target” (GE Healthcare AS, priority 2002, dated 2009).

Experiments:
Urease = experiment: Hyperpolarised 13C-urea NMR assay of enzymatic conversion and its inhibition; conditions: 10, 12 and 14 units urease, substrate concentration constant
Description: The frozen sample was hyperpolarised for one hour (DNP method). The sample was dissolved in a phosphate buffer (10 mM, pH 7.6, 100° C., 8.5 ml (active dissolution volume 3 ml)) and 500 μl were transferred to a 10 mm NMR tube containing 2.5 ml of a solution (same buffer as for urea) containing 12 units urease (0.1 mg). A series of 40 one-dimensional ^13C spectra were collected as one every 3 s, with a reduced flip angle (15°).
It is possible to calibrate the flip angle, and the relaxation rate for urea is known. […] Another way of calculating the reaction rate for the system is to vary the enzyme concentration while keeping the concentration of substrate constant.
The latter approach was used in a series of experiments that were performed as described above, only the concentration of urease was varied. Three experiments were performed with 10 units, 12 units and 14 units urease. The urease activity was plotted as a function of concentration. From this plot, the reaction rate constant was extracted directly. The NMR signal intensities of urea in the individual experiments have been used to calculate the enzymatic activity.

[1] = system: Src homology domain 2 from growth binding hormone; experiment: Hyperpolarised (DNP) 13C-NMR binding assay, ligand free vs bound signals; conditions: target to ligand ratio 4:1, ligand 24 μM, 25° C., single scan
Description: The sample was placed in the polariser and hyperpolarised overnight (17 h) at 93.934 GHz and 100 mW (DNP method). The sample was brought into solution with phosphate buffer (pH 6.5, 100 mM, 60° C., 8.5 ml). The active dissolution volume was 3 ml with 90% recovery of substance, providing a final concentration of 5.7 μM. […] A liquid state NMR spectrum was acquired in one scan with a 90° pulse angle and acquisition time of 1 s. One NMR signal was obtained at 176.9 ppm from the ^13C-labeled ligand. The signal-to-noise ratio (SNR) of the spectrum was 50.
940 μl of the target solution (100 μM target, 5 mM DTT, 100 mM NaCl, 50 mM phosphate pH 6.5) was placed in 10 mm NMR tube with a bottom plug, reducing the active volume to […]. The tube was placed in a 9.4 T magnet with the temperature of the probe equilibrated to 25° C. A tube was connected to the bottom of the NMR tube to allow for injection of the ligand solution into the target solution.
The sample was placed in the polariser and hyperpolarised overnight (17 h) at 93.934 GHz and 100 mW (DNP method). […]
In this example, the target to ligand concentration ratio was 4:1. […] By varying the ligand to target concentration in the assay it would thus be possible to measure the binding affinity by quantifying the relative amounts of free and bound ligand visible in the spectra based on the knowledge of ligand/target concentrations used in the assay.

[2] = system: Src homology domain 2 from growth binding hormone; conditions: cited from earlier work

Row | Compound | rate constant for the system (enzymatic conversion of urea) (Urease) [s⁻¹] | NMR signals of hyperpolarised ligand in mixture with target (free/bound) [1] | exchange regime of ligand with the target [2]
1 | NC(N)=O [urea] | 0.0019 | – | –
2 | (1-^13C)—Ac—EpYINQ—NH2 | – | two signals, one from the unbound ligand (176.94 ppm) and one from the bound ligand (176.2 ppm) | slow exchange with the target
